The source of these data is ChEMBL document CHEMBL4706479, “Novel Aryloxyethyl Derivatives of 1-(1-Benzoylpiperidin-4-yl)methanamine as the Extracellular Regulated Kinases 1/2 (ERK1/2) Phosphorylation-Preferring Serotonin 5-HT Receptor-Biased Agonists with Robust Antidepressant-like Activity” (J Med Chem, 2019).

For data set [1], the system named is Rattus norvegicus. Description: Antidepressant-like activity in Wistar rat assessed as serum concentration causing 50% reduction in immobility time after oral administration of compound and measured after 15 mins by Porsolt-forced swim test. In kind it is functional.
Data set [2] can be described thus: Permeability of compound across basolateral to apical side in human Caco-2 cells at pH 7.4. In kind it is ADME, cell-based. The following applies: Caco-2, pH 7.4, read-out: permeability.
The test system of data set [3] is Rattus norvegicus. The data set can be described thus: In vivo biased agonist activity at 5-HT1A receptor in rat prefrontal brain cortex assessed as increase in ERK1/2 phosphorylation levels at […], po administered as single dose measured after 30 mins by Alphalisa assay. The data set is classed as functional, organism-based.
For data set [4], the species on record is Homo sapiens. The data set can be described thus: Inhibition of potassium channel (unknown origin) at 10 uM relative to control.
For data set [5], the species on record is Homo sapiens. The data set can be described thus: Inhibition of delta 2-type opioid receptor (unknown origin) at 10 uM relative to control.
In data set [6] the target is Kappa-type opioid receptor (Homo sapiens) (UniProt P41145). The data set can be described thus: Inhibition of kappa opioid receptor (unknown origin) at 10 uM relative to control.
The target in data set [7] is 5-hydroxytryptamine receptor 2A (Homo sapiens) (UniProt P28223). Description: Inhibition of 5-HT2A (unknown origin) at 10 uM relative to control.
Data set [8] deals with Adenosine receptor A2a (Homo sapiens) (UniProt P29274). The data set can be described thus: Inhibition of adenosine receptor A2A (unknown origin) at 10 uM relative to control.
Data set [9] concerns the target Glucocorticoid receptor (Homo sapiens) (UniProt P04150). Description: Inhibition of glucocorticoid receptor (unknown origin) at 10 uM relative to control.
Data set [10] can be described thus: Aqueous solubility of compound in simulated intestinal fluid at 200 uM. In kind it is physicochemical.
The test system of data set [11] is Rattus norvegicus. The data set can be described thus: In vivo biased agonist activity at 5-HT1A receptor in rat prefrontal brain cortex assessed as increase in ERK1/2 phosphorylation levels at […], po administered as single dose by Alphalisa assay. In kind it is functional, organism-based. The following applies: time 5-60 min, TDE = time-dependent effect.
The next data set has as its system MDCK-II. Description: Inhibition of P-gp in human MDR1-MDCKII cells at 10 uM relative to control. The data set is classed as cell-based. The following applies: Canis lupus familiaris.
In data set [12] the target is Sodium-dependent noradrenaline transporter (Homo sapiens) (UniProt P23975). Description: Inhibition of norepinephrine transporter (unknown origin) at 10 uM relative to control.
Data set [13] has as its target Neuronal acetylcholine receptor; alpha4/beta2 (Homo sapiens) (UniProt P17787+P43681). The data set can be described thus: Inhibition of nicotinic acetylcholine receptor alpha4beta2 (unknown origin) at 10 uM relative to control. The data set is classed as protein-complex assay.
Data set [14] concerns the target Alpha-1B adrenergic receptor (Homo sapiens) (UniProt P35368). The data set can be described thus: Inhibition of adrenergic alpha-1B receptor (unknown origin) at 1 uM relative to control.
Data set [15] concerns the target 5-hydroxytryptamine receptor 6 (Homo sapiens) (UniProt P50406). The data set can be described thus: Inhibition of 5-HT6 (unknown origin) at 1 uM relative to control.
The target in the next data set is D(2) dopamine receptor (Homo sapiens, UniProt P14416). Description: Inhibition of dopamine D2S receptor (unknown origin) at 1 uM relative to control.
For the next data set, the target named is MAO-A (Homo sapiens, UniProt P21397). Description: Inhibition of MAO-A (unknown origin) at 10 uM relative to control.
A further data set deals with CYP2D6 (Homo sapiens, UniProt P10635). Description: Inhibition of human recombinant CYP2D6 at 10 uM relative to control. The data set is classed as ADME.
The target in a further data set is hERG (KCNH2) (Homo sapiens, UniProt Q12809). The data set can be described thus: Inhibition of human ERG at 10 uM by patch clamp technique relative to control.
In data set [16] the test system is Rattus norvegicus. The data set can be described thus: Antidepressant-like activity in Wistar rat assessed as reduction in immobility time at 0.04 to […], po administered 60 mins prior to testing and measured for 5 mins test period in presence of 5-HT1A antagonist WAY100635 by Porsolt-forced swim test. The following applies: dose lower 0.04 mg/kg, dose upper […], time 65.0 min. The data set is classed as functional, organism-based.

The target in data set [17] is Beta-1 adrenergic receptor (Homo sapiens) (UniProt P08588). Description: Inhibition of adrenergic beta1 receptor (unknown origin) at 10 uM relative to control.

Molecules are shown by their SMILES. Values after ≈ are worked out from the molar mass of the structure shown. Active and inactive are the calls of the source. No cut-off for these calls is given here.

Sequence of Adenosine receptor A2a (Homo sapiens) (P29274 whole entry): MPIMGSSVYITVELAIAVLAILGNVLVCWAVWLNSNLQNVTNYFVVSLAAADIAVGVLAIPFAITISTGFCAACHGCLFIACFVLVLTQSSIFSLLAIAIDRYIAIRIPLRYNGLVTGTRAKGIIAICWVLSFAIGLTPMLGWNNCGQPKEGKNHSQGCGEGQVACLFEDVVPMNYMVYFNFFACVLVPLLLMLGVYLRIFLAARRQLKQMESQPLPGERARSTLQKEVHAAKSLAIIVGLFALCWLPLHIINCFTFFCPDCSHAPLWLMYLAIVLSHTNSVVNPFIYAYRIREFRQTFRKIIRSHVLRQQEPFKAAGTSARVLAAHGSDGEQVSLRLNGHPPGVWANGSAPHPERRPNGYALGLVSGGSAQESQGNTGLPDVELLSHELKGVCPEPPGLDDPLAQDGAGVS
Sequence of Alpha-1B adrenergic receptor (Homo sapiens) (P35368 whole entry): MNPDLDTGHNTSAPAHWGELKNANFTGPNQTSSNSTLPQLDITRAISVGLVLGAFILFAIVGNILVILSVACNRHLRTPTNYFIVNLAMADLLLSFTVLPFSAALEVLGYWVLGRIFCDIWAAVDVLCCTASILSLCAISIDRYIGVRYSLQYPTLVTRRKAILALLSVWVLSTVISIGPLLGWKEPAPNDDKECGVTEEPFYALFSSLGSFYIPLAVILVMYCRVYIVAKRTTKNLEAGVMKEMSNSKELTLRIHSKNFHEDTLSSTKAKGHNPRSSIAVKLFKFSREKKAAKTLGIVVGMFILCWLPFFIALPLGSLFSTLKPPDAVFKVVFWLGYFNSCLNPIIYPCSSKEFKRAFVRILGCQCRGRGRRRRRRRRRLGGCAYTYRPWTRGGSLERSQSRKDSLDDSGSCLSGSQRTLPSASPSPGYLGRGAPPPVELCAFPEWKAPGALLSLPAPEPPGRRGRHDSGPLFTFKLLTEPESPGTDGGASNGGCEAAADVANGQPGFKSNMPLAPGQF
Sequence of MAO-A (P21397 whole entry): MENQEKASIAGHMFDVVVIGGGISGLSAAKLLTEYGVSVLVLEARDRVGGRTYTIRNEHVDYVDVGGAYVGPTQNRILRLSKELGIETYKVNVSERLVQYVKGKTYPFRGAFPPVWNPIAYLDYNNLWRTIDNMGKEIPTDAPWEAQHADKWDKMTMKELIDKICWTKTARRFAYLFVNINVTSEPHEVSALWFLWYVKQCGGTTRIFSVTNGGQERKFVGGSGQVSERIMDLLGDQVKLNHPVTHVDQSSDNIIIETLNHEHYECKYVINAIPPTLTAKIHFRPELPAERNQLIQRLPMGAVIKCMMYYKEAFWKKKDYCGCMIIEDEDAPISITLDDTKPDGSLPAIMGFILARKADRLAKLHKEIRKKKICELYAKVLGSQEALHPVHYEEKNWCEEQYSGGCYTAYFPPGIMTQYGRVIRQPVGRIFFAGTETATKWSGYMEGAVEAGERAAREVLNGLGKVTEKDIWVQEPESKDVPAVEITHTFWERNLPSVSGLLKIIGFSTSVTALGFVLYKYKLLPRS
Sequence of Kappa-type opioid receptor (Homo sapiens) (P41145 whole entry): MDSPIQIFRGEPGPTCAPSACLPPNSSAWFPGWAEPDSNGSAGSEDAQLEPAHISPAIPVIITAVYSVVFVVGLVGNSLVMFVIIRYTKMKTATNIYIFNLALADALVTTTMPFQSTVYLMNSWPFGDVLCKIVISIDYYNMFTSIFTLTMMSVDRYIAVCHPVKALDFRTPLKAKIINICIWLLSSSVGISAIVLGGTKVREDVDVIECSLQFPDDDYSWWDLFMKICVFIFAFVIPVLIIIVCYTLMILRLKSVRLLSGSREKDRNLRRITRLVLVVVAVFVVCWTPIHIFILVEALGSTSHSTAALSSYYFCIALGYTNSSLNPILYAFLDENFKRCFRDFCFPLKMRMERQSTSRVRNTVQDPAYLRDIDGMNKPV
Sequence of 5-hydroxytryptamine receptor 6 (Homo sapiens) (P50406 whole entry): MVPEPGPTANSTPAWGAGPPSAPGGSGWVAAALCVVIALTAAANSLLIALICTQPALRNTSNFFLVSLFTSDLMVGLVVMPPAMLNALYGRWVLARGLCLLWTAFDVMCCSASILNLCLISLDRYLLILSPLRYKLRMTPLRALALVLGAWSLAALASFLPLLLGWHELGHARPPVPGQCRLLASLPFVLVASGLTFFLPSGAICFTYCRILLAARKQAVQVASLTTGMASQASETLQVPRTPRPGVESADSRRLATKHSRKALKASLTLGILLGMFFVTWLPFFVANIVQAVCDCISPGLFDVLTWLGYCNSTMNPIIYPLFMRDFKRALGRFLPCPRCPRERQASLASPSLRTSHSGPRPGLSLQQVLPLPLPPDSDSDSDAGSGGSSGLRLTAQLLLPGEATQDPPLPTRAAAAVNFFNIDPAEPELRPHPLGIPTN
Sequence of Sodium-dependent noradrenaline transporter (Homo sapiens) (P23975 whole entry): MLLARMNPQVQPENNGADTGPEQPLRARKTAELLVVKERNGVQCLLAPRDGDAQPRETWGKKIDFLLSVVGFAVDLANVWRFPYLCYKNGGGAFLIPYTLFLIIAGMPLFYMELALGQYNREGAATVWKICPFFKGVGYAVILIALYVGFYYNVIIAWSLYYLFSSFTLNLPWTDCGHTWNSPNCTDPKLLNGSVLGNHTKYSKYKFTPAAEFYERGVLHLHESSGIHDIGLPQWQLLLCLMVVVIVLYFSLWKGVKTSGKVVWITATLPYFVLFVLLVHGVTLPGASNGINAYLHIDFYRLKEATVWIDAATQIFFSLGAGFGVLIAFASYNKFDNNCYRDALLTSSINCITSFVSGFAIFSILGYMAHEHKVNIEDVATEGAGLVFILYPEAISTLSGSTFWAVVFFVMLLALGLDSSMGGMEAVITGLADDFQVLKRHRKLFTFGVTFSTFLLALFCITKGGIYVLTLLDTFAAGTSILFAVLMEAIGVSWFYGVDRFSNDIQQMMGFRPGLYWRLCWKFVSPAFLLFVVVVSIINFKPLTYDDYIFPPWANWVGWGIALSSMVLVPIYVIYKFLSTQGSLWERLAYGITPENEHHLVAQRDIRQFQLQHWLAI
Sequence of Beta-1 adrenergic receptor (Homo sapiens) (P08588 whole entry, looked up): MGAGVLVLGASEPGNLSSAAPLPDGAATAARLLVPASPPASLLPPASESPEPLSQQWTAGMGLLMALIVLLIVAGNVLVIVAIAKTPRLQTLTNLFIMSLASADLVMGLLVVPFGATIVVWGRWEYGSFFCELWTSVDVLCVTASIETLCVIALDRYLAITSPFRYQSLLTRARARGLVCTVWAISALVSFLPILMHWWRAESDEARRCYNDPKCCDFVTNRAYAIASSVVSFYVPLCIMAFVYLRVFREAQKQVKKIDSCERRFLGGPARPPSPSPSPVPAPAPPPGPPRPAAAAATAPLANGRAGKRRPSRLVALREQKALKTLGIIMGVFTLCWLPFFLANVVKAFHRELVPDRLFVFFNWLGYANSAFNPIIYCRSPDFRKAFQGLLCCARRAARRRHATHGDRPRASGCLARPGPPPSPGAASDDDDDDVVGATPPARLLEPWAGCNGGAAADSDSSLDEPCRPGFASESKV
Sequence of hERG (KCNH2) (Q12809 whole entry): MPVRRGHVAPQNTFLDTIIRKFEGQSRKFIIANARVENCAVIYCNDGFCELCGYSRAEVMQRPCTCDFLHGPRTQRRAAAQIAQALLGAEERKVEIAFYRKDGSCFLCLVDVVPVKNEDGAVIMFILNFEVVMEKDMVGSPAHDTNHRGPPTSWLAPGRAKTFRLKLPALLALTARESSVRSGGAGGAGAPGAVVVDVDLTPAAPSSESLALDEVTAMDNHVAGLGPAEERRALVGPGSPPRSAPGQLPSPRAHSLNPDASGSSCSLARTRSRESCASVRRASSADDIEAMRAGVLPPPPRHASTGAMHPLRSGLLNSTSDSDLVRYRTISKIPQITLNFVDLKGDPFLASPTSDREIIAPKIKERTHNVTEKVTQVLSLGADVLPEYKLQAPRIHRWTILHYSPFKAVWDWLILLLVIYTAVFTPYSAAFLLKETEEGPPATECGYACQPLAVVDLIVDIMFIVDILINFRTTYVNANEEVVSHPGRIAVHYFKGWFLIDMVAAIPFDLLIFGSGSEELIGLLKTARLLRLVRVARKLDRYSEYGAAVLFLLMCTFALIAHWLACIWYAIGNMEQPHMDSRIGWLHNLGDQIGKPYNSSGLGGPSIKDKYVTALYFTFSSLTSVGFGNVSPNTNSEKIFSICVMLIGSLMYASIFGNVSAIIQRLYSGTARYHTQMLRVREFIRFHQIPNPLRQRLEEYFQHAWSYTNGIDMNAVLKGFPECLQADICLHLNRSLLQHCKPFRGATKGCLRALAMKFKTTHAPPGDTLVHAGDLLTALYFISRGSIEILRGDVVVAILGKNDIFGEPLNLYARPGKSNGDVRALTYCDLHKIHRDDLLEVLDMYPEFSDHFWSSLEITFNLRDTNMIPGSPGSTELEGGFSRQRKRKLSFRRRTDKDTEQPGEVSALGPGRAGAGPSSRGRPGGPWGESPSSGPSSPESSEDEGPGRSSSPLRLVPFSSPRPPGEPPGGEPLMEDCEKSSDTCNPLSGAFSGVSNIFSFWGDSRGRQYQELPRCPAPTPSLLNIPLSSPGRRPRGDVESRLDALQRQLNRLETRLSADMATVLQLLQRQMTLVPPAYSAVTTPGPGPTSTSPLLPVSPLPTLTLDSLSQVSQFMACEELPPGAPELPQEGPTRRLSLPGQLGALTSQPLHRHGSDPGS
Sequence of 5-hydroxytryptamine receptor 2A (Homo sapiens) (P28223 whole entry): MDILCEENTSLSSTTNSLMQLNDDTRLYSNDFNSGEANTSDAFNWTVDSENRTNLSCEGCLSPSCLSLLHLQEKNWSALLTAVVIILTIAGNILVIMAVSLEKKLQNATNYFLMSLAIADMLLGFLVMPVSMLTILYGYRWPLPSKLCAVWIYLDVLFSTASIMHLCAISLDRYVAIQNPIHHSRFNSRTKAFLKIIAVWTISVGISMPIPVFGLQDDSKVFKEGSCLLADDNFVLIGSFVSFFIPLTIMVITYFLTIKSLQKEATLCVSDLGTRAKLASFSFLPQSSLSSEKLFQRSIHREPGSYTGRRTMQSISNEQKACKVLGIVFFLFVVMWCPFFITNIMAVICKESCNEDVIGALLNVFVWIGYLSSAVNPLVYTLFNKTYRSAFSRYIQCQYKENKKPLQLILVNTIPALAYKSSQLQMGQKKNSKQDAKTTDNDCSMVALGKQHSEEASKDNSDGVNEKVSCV

Turning to `O=C(c1ccc(F)c(Cl)c1)N1CCC(F)(CNCCOc2ccccn2)CC1`, the EC with Rattus norvegicus [1] came out at 6.76 ng/mL. Besides, the Papp B→A in data set [2] came to 22.4 ×10⁻⁶ cm/s. Moreover, the result in the data set on Rattus norvegicus [3] was Active. For the same molecule, the inhibition in the data set listed under Homo sapiens [4] is 3.8%; in the data set filed under Homo sapiens [5] it was 7.2%; in [6] it was 34.6%; in [7], 9%; in [8], 11.8%; in [9] it was -5.1%. Besides, the inhibition in the data set with MDCK-II is 6.5%; in data set [12] it was -2%; in data set [13] it was -5.4%; in [14], 32.2%; in data set [15], 12.1%; at D(2) dopamine receptor, 9.5%. Besides, the inhibition in data set [17] came out at 2.2%. The molecule also had a solubility at 200 µM in data set [10] of 192 µM (≈ 78.8 µg/mL). For the same molecule, the Activity entry with Rattus norvegicus [11] is “Tde”. Also, the inhibition at 10 µM against MAO-A was -3.6%; on CYP2D6 it was 15.9%; against hERG (KCNH2) it was 46.5%. Further, the result in the data set with Rattus norvegicus [16] was inactive.
